Assay results from patent publication US10364226B2, “Pyridazinone compounds and uses thereof” (priority 2013, dated 2019).
pEC50, pIC50: −log10 of the molar value.

Key:
[1] = tested on: Influenza strain A549 A/WSN/33 (H1N1); assay: Influenza Antiviral Assay; assay type: cell-based, Influenza A virus; conditions: Influenza A virus, A549, 20 h, neuraminidase fluorescence readout, read-out: % Inhibition
EN PA = EN PA (Influenza A virus, UniProt P15659); assay: EN PA FRET Inhibition Assay; assay type: biochemical; conditions: read-out: Potency

Row | Compound | pEC50 [1] | pIC50 (EN PA)
1 | CNC(=O)c1nn(CC2(c3cc4ccccc4cc3Cl)CCCC2)cc(O)c1=O [Compound 893] | > 4.70 | > 7.00
2 | CNC(=O)c1nn(CC2(n3cc(C(C)=O)c4cc(C)cnc43)CCCC2)cc(O)c1=O [Compound 894] | > 4.70 | > 7.00
3 | O=C1NCCCCCOc2cccc(c2)C2(CCCC2)Cn2cc(O)c(=O)c1n2 [Compound 895] | > 4.70 | > 7.00
4 | CNC(=O)c1nn(CC2(n3c4ccccc4c4ccccc43)CCCC2)cc(O)c1=O [Compound 896] | > 4.70 | > 7.00
5 | CNC(=O)c1nn(CC2(c3ccc4c(C)cccc4c3)CCCC2)cc(O)c1=O [Compound 897] | > 4.70 | > 7.00
6 | CNC(=O)c1nn(CC2(n3cc(C)c4cc(Cl)ccc43)CCCC2)cc(O)c1=O [Compound 898] | > 4.70 | > 7.00
7 | CNC(=O)c1nn(CC2(n3cc(Cl)c4cc(Cl)ccc43)CCCC2)cc(O)c1=O [Compound 899] | > 4.70 | > 7.00
